Source: patent US20160145247A1, “Aminomethyl-Biaryl Derivatives Complement Factor D inhibitors and uses thereof” (NOVARTIS AG, priority 2013, published 2016)

Each molecule was assayed against T1, factor D (Homo sapiens, UniProt P00746) (assay: factor D inhibition assay of Biological Example 2).
T1 construct: made in house; host or cells: E. coli
Format: biochemical

T1 sequence (P00746 26-253): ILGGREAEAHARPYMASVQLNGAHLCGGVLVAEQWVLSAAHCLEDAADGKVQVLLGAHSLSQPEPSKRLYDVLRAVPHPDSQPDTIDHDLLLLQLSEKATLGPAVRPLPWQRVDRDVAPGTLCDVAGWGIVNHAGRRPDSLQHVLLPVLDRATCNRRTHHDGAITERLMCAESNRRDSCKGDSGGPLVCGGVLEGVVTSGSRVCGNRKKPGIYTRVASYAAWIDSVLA

In order of falling IC50:
1. N[C@H](CO)c1cccc(-c2ccc3c(c2)C(Oc2ccccc2CC(=O)O)CC3)c1 (mixture of isomers) [Example 172, (±)-2-(2-((6-(3-((S)-1-Amino-2-hydroxyethyl)phenyl)-2,3-dihydro-1H-inden-1-yl)oxy)phenyl)acetic acid]  5880 nM
2. NCc1ccc(F)c(-c2ccnc(COc3ccccc3CC(=O)O)c2)c1 [Example 176, 2-(2-((4-(5-(Aminomethyl)-2-fluorophenyl)pyridin-2-yl)methoxy)phenyl)acetic acid]  5740 nM
3. NCc1ccc(F)c(-c2cccc(C(=O)Nc3ccccc3CC(=O)O)c2)c1 [Example 4-B, 2-(2-(5′-(Aminomethyl)-2′-fluoro-[1,1′-biphenyl]-3-ylcarboxamido)phenyl)acetic acid]  4600 nM
4. NCc1cc(F)cc(-c2cc(C(=O)O)cc(C(=O)Nc3ccccc3CC(=O)O)c2)c1 [Example 95-B, 3′-(Aminomethyl)-5-((2-(carboxymethyl)phenyl)carbamoyl)-5′-fluoro-[1,1′-biphenyl]-3-carboxylic acid]  2240 nM
5. Cc1ccc(NC(=O)c2cccc(-c3cc(F)cc(CN)c3)c2)c(CC(=O)O)c1 [Example 22-C, 2-(2-(3′-(aminomethyl)-5′-fluoro-[1,1′-biphenyl]-3-ylcarboxamido)-5-methylphenyl)acetic acid]  835 nM
6. NCc1cc(F)cc(-c2cccc(C(=O)Nc3cc(Br)ccc3CC(=O)O)c2)c1 [Example 21-A]  414 nM
7. NCc1cccc(-c2cccc(C(=O)Nc3cc(Cl)ccc3CC(=O)O)c2)c1 [Example 17-B, 2-(2-(3′-(Aminomethyl)-[1,1′-biphenyl]-3-ylcarboxamido)-4-chlorophenyl)acetic acid]  399 nM
8. NCc1cccc(-c2ccc3c(c2)C(Oc2ccccc2CC(=O)O)CCC3)c1 (single isomer, unassigned) [175 b) (tr = 9.5 min), (−) or (+)-(2-((7-(3-(aminomethyl)phenyl)-1,2,3,4-tetrahydronaphthalen-1-yl)oxy)phenyl)acetic acid]  250 nM
9. CNC(=O)c1cc(C(=O)Nc2ccccc2CC(=O)O)cc(-c2cccc(CN)c2)c1 [Example 7-D, 2-(2-(3′-(Aminomethyl)-5-(methylcarbamoyl)-[1,1′-biphenyl]-3-ylcarboxamido)phenyl)acetic acid]  244 nM
10. N[C@H](CO)c1cc(Cl)cc(-c2cccc(COc3ccccc3CC(=O)O)c2)c1 [Example 277-C, (S)-2-(2-((3′-(1-Amino-2-hydroxyethyl)-5′-chloro-[1,1′-biphenyl]-3-yl)methoxy)phenyl)acetic acid]  190 nM
11. COc1cccc(CC(=O)O)c1NC(=O)c1cccc(-c2cc(F)cc(CN)c2)c1 [Example 21-K]  126 nM
12. NCc1cc(F)cc(-c2cccc(C(=O)Nc3ccccc3CC(=O)O)c2)c1 [Example 6-B, 2-(2-(3′-(Aminomethyl)-5′-fluoro-[1,1′-biphenyl]-3-ylcarboxamido)phenyl)acetic acid]  106 nM
13. C[C@@H](N)c1cccc(-c2cccc(COc3ccccc3CC(=O)O)c2)c1F [Example 138-L]  99 nM
14. NCc1ccnc(-c2cc(COc3ccccc3CC(=O)O)cc(OC[C@H]3CCCO3)c2)c1 [Example 138-B]  88 nM
15. C[C@H](N)c1cccc(-c2cc(CCc3ccncc3)cc(COc3ccccc3CC(=O)O)c2)c1F [Example 216-O]  78 nM
16. NCc1cccc(-c2cc(Cl)cc(C(=O)Nc3ccccc3CC(=O)O)n2)c1 [Example 41, 2-(2-(6-(3-(Aminomethyl)phenyl)-4-chloropicolinamido)phenyl)acetic acid]  74 nM
17. N#Cc1ccc(OCc2cccc(-c3cccc(CN)c3)c2)c(CC(=O)O)c1 [Example 294-F]  70 nM
18. CCC[C@@H](N)c1cccc(-c2cc(COc3ccccc3CC(=O)O)cc(NCC3CC3)c2)c1 [Example 197, (R)-2-(2-((3′-(1-Aminobutyl)-5-((cyclopropylmethyl)amino)-[1,1′-biphenyl]-3-yl)methoxy)phenyl)acetic acid]  69 nM
19. NCc1cccc(-c2nc(C(=O)Nc3ccccc3CC(=O)O)cs2)c1 [Example 27, 2-(2-(2-(3-(Aminomethyl)phenyl)thiazole-4-carboxamido)phenyl)acetic acid]  50 nM
20. CCOCc1cc(COc2ccccc2CC(=O)O)cc(-c2cccc([C@@H](C)N)c2)c1 [Example 120-R]  50 nM
21. N[C@H](CO)c1cccc(-c2cccc(COc3ccccc3CC(=O)O)c2)n1 [Example 138-K]  45 nM
22. CCc1sc(-c2cc(F)cc(CN)c2)nc1C(=O)Nc1ccccc1CC(=O)O [Example 36-C, 2-(2-(2-(3-(Aminomethyl)-5-fluorophenyl)-5-ethylthiazole-4-carboxamido)phenyl)acetic acid]  36 nM
23. C[C@@H](N)c1cccc(-c2cc(COc3ccccc3CC(=O)O)cc(OC[C@H]3CCCO3)c2)n1 [Example 235, 2-(2-((3-(6-((R)-1-aminoethyl)pyridin-2-yl)-5-(((R)-tetrahydrofuran-2-yl)methoxy)benzyl)oxy)phenyl)acetic acid]  34 nM
24. COC[C@@H](N)c1cccc(-c2cccc(COc3ccccc3CC(=O)O)c2)c1 [Example 169, (S)-2-(2-((3′-(1-Amino-2-methoxyethyl)-[1,1′-biphenyl]-3-yl)methoxy)phenyl)acetic acid]  33 nM
25. CCC[C@@H](N)c1cccc(-c2cc(COc3ccccc3CC(=O)O)cc(C3CC3)c2)c1F [Example 202-B, (R)-2-(2-((3′-(1-Aminobutyl)-5-cyclopropyl-2′-fluoro-[1,1′-biphenyl]-3-yl)methoxy)phenyl)acetic acid]  33 nM
26. C[C@@H](N)c1cccc(-c2cc(COc3ccccc3CC(=O)O)cc(N(C)CC3CCCC3)c2)c1F [Example 216-F]  31 nM
27. CC(=O)Nc1cc(C(=O)Nc2ccccc2CC(=O)O)cc(-c2cc(F)cc(CN)c2)c1 [Example 67-B, 2-(2-(5-Acetamido-3′-(aminomethyl)-5′-fluoro-[1,1′-biphenyl]-3-ylcarboxamido)phenyl)acetic acid]  30 nM
28. Cn1ccc(Nc2cc(C(=O)Nc3ccccc3CC(=O)O)cc(-c3cc(F)cc(CN)c3)c2)n1 [Example 79-C]  22 nM
29. C[C@H](N)c1cccc(-c2cc(COc3ccccc3CC(=O)O)cc(OCc3ccccn3)c2)c1F [Example 214-M]  20 nM
30. COc1ccc(C)c(Nc2cc(C(=O)Nc3ccccc3CC(=O)O)cc(-c3cc(F)cc(CN)c3)c2)c1 [Example 14-A]  15 nM
31. N[C@H](CO)c1cccc(-c2cccc(COc3ccccc3CC(=O)O)c2)c1Cl [Example 141-B, (S)-2-(2-((3′-(1-Amino-2-hydroxyethyl)-2′-chloro-[1,1′-biphenyl]-3-yl)methoxy)phenyl)acetic acid]  14 nM
32. C[C@@H](N)c1cccc(-c2cc(COc3ccccc3CC(=O)O)cc(N(C)C[C@H]3CCCO3)c2)c1F [Example 216-I]  13 nM
33. COc1cc(COc2ccccc2CC(=O)O)cc(-c2cccc(CN)c2)c1 [Example 134, 2-(2-((3′-(Aminomethyl)-5-methoxy-[1,1′-biphenyl]-3-yl)methoxy)phenyl)acetic acid]  13 nM
34. NCc1cccc(-c2cc(NC[C@@H]3CCCO3)cc(C(=O)Nc3ccccc3CC(=O)O)n2)c1 [Example 45, (S)-2-(2-(6-(3-(Aminomethyl)phenyl)-4-(((tetrahydrofuran-2-yl)methyl)amino)picolinamido)phenyl)acetic acid]  12 nM
35. C[C@H](N)c1cccc(-c2cc(CCCF)cc(COc3ccccc3CC(=O)O)c2)c1F [Example 270, (S)-2-(2-((3′-(1-aminoethyl)-2′-fluoro-5-(3-fluoropropyl)-[1,1′-biphenyl]-3-yl)methoxy)phenyl)acetic acid]  11 nM
36. NCc1cccc(-c2cccc(COc3cc(C(N)=O)ccc3CC(=O)O)c2)c1 [Example 294-C]  10 nM
37. C[C@@H](N)c1cccc(-c2cc(COc3ccccc3CC(=O)O)cc(N3CCCC3)c2)c1F [Example 216-V]  9 nM
38. NCc1cccc(-c2cccc(COc3cc(C4CC4)ccc3CC(=O)O)c2)c1 [Example 294-A]  9 nM
39. C[C@@H](N)c1cccc(-c2cc(COc3ccccc3CC(=O)O)cc(OCc3ccn(C)n3)c2)c1F [Example 214-E]  8 nM
40. NC(CF)c1cccc(-c2cc(COc3ccccc3CC(=O)O)cc(OC[C@H]3CCCO3)c2)c1F (single isomer, unassigned; (+)) [Example 212-B]  6 nM
41. NC(CF)c1cccc(-c2cc(COc3ccccc3CC(=O)O)cc(OC[C@H]3CCCO3)c2)c1F (single isomer, unassigned; (-)) [Example 212-A]  6 nM
42. NCc1cccc(-c2cc(COc3ccccc3CC(=O)O)cc(OC[C@H]3CCCO3)c2)n1 [Example 138-M]  5 nM
43. CC(O)c1cc(COc2ccccc2CC(=O)O)cc(-c2cccc([C@@H](C)N)c2)c1 (stereo partly shown) [Example 116-F]  5 nM
44. CC(C)CC(=O)Nc1cc(C(=O)Nc2ccccc2CC(=O)O)cc(-c2cc(F)cc(CN)c2)c1 [Example 98, 2-(2-(3′-(Aminomethyl)-5′-fluoro-5-(3-methylbutanamido)-[1,1′-biphenyl]-3-ylcarboxamido)phenyl)acetic acid]  4 nM
45. C[C@H](N)c1cccc(-c2cc(COc3ccccc3CC(=O)O)cc(OC[C@H]3CCCO3)c2)c1F [Example 233, 2-(2-((3′-((S)-1-aminoethyl)-2′-fluoro-5-(((R)-tetrahydrofuran-2-yl)methoxy)-[1,1′-biphenyl]-3-yl)methoxy)phenyl)acetic acid]  4 nM
46. NCc1cccc(-c2ccc3c(c2)C(Oc2ccccc2CC(=O)O)CCC3)c1 (single isomer, unassigned) [175 b) (tr = 4.1 min), (+) or (−)-(2-((7-(3-(aminomethyl)phenyl)-1,2,3,4-tetrahydronaphthalen-1-yl)oxy)phenyl)acetic acid]  3 nM
47. NCc1cccc(-c2cc(NCc3ccccc3)cc(C(=O)Nc3ccccc3CC(=O)O)n2)c1 [Example 53, 2-(2-(6-(3-(Aminomethyl)phenyl)-4-(benzylamino)picolinamido)phenyl)acetic acid]  3 nM
48. CCN(C[C@@H]1CCCO1)c1cc(COc2ccccc2CC(=O)O)cc(-c2cccc([C@@H](C)N)c2F)c1 [Example 216-J]  3 nM
49. C[C@@H](N)c1cccc(-c2cc(COc3ccccc3CC(=O)O)cc(NCCF)c2)c1F [Example 216-K]  2 nM
